In patent publication US6514913B1, “Weed growth inhibitory compositions” (Marubeni Agrotec Corporation, priority 1998, dated 2003):

Key:
Perennial ryegrass = assay: Pot test in greenhouse, lawn phytotoxicity (Test Example 2); type: in vivo, Lolium SPP.; design: key: −:None; ±:Very slight; +:Slight; 2+:Moderate; 3+:Heavy; ×:Dead; settings: flowable of Preparation Example 3 on bred lawn sod in pots, 30 days after treatment
Excerpt: (§1) Plastic pots having a size of 100 m^2/5000 were filled with soil of an upland farm, and planted with a lawn sod withdrawn by a hole cutter from various bred turfs. The planted pots were bred and managed in a greenhouse for about 1 month, and then the lawn grasses were cut to the same height to use the pots as sample pots. On the day of the cutting, a predetermined amount of the flowable prepared by the method described in the Preparation Example 3 applied to the sample pots in an amount of 250 ml/m^2 of dilution with water. Then, the pots were allowed to stand in the greenhouse, and sprinkled with water at the appropriate times. Thirty days after treatment with the composition, its phytotoxicity to the lawn grasses was observed. Evaluations of the phytotoxicity to the lawn grasses in the table were made according to the following criteria:

flat-sedge = assay: Pot test in greenhouse, weed growth inhibition (Test Example 1); type: in vivo, Cyperus microiria; settings: flowable of Preparation Example 3, soil surface one day after sowing, 30 days after treatment
Excerpt: (§2) Plastic pots having a size of 100 m^2/3000 were filled with soil of an upland farm, and the surface of the soil was flattened. Then, the soil surfaces were sowed with weed seeds of annual bluegrass, foxtail, and flat-sedge. After sowing, the seeds were covered with soil to a height of about 5 mm. Also, the rhizomes of Cyperus brevifolius were buried to a depth of about 1 cm. One day after sowing, a predetermined amount of the flowable prepared by the method described in the Preparation Example 3 was applied to the soil surface in an amount of 250 ml/m^2 of dilution with water. Then, the pots were allowed to stand in the greenhouse, and sprinkled with water at the appropriate times. Thirty days after treatment with the composition, its growth inhibition effect was observed. The growth inhibition effect in the table was evaluated according to the following criteria:
(§3) Evaluation Criteria for Weed Growth Inhibition Effect: […]

Kentucky bluegrass = assay: Pot test in greenhouse, lawn phytotoxicity (Test Example 2); type: in vivo, Poa pratensis; design: key: −:None; ±:Very slight; +:Slight; 2+:Moderate; 3+:Heavy; ×:Dead; settings: flowable of Preparation Example 3 on bred lawn sod in pots, 30 days after treatment
Excerpt: as §1

Bermudagrass = assay: as above; type: in vivo; design: key: −:None; ±:Very slight; +:Slight; 2+:Moderate; 3+:Heavy; ×:Dead; settings: flowable of Preparation Example 3 on bred lawn sod in pots, 30 days after treatment
Excerpt: as §1

South Japanese lawngrass = assay: as above; type: in vivo, Zoysia matrella; design: key: −:None; ±:Very slight; +:Slight; 2+:Moderate; 3+:Heavy; ×:Dead; settings: flowable of Preparation Example 3 on bred lawn sod in pots, 30 days after treatment
Excerpt: as §1

annual bluegrass [1] = assay: Field test, lawn grass seed overseeding test, weed growth inhibition (Test Example 4); type: in vivo, Poa annua L.; settings: 30 days after treatment
Protocol: Evaluation Criteria for Weed Growth Inhibition Effect:
A land of breeding of South Japanese lawngrass was divided into plots of 1 m^2 (1×1 m), and seeds of perennial ryegrass or tall fescue, and seeds of annual bluegrass as a weed were sowed on the entire surface of each plot. On the day of sowing, a predetermined amount of the flowable prepared by the method described in the Preparation Example 3 was applied in an amount of 250 ml/m^2 of dilution with water. Thirty days after treatment with the composition, its weed growth inhibition effect and lawn phytotoxicity were observed. Evaluations of the weed growth inhibition effect and lawn phytotoxicity in the table were made according to mentioned criteria.

Bentgrass = assay: Pot test in greenhouse, lawn phytotoxicity (Test Example 2); type: in vivo, Agrostis L.; design: key: −:None; ±:Very slight; +:Slight; 2+:Moderate; 3+:Heavy; ×:Dead; settings: flowable of Preparation Example 3 on bred lawn sod in pots, 30 days after treatment
Excerpt: as §1

Japanese lawngrass = assay: as above; type: in vivo, Zoysia japonica; design: key: −:None; ±:Very slight; +:Slight; 2+:Moderate; 3+:Heavy; ×:Dead; settings: flowable of Preparation Example 3 on bred lawn sod in pots, 30 days after treatment
Excerpt: as §1

Tall fescue = assay: as above; type: in vivo, Festuca arundinacea; design: key: −:None; ±:Very slight; +:Slight; 2+:Moderate; 3+:Heavy; ×:Dead; settings: flowable of Preparation Example 3 on bred lawn sod in pots, 30 days after treatment
Excerpt: as §1

annual bluegrass [2] = assay: Pot test in greenhouse, weed growth inhibition (Test Example 1); type: in vivo, Poa annua L.; settings: flowable of Preparation Example 3, soil surface one day after sowing, 30 days after treatment
Excerpt: as §2, §3

foxtail = assay: as above; type: in vivo; settings: flowable of Preparation Example 3, soil surface one day after sowing, 30 days after treatment
Excerpt: as §2, §3

Cyperus brevifolius = assay: as above; type: in vivo; settings: flowable of Preparation Example 3, soil surface, rhizomes buried about 1 cm, 30 days after treatment
Excerpt: as §2, §3

[3] = 100 g active ingredient/1000 m^2
[4] = 250 g active ingredient/1000 m^2
[5] = 500 g active ingredient/1000 m^2
[6] = 750 g active ingredient/1000 m^2
[7] = 1000 g active ingredient/1000 m^2
[8] = 2000 g active ingredient/1000 m^2
[9] = 50 g active ingredient/1000 m^2

## CC(C)(NC(=O)NCc1ccccc1Cl)c1ccccc1 [cumyluron, 1-(2-chlorobenzyl)-3-(1-methyl-1-phenylethyl)urea]
Perennial ryegrass; [3]
  Lawn phytotoxicity Perennial ryegrass: −
Perennial ryegrass; [4]
  Lawn phytotoxicity Perennial ryegrass: −
Perennial ryegrass; [5]
  Lawn phytotoxicity Perennial ryegrass: −
Perennial ryegrass; [6]
  Lawn phytotoxicity Perennial ryegrass: −
Perennial ryegrass; [7]
  Lawn phytotoxicity Perennial ryegrass: −
Perennial ryegrass; [8]
  Lawn phytotoxicity Perennial ryegrass: −
flat-sedge; [9]
  Inhibitory effect flat-sedge: 10 (10:100% inhibition)
flat-sedge; [3]
  Inhibitory effect flat-sedge: 10 (10:100% inhibition)
flat-sedge; [4]
  Inhibitory effect flat-sedge: 10 (10:100% inhibition)
flat-sedge; [5]
  Inhibitory effect flat-sedge: 10 (10:100% inhibition)
flat-sedge; [6]
  Inhibitory effect flat-sedge: 10 (10:100% inhibition)
flat-sedge; [7]
  Inhibitory effect flat-sedge: 10 (10:100% inhibition)
Kentucky bluegrass; [3]
  Lawn phytotoxicity Kentucky bluegrass: −
Kentucky bluegrass; [4]
  Lawn phytotoxicity Kentucky bluegrass: −
Kentucky bluegrass; [5]
  Lawn phytotoxicity Kentucky bluegrass: −
Kentucky bluegrass; [6]
  Lawn phytotoxicity Kentucky bluegrass: −
Kentucky bluegrass; [7]
  Lawn phytotoxicity Kentucky bluegrass: −
Kentucky bluegrass; [8]
  Lawn phytotoxicity Kentucky bluegrass: −
Bermudagrass; [3]
  Lawn phytotoxicity Bermuda-grass: −
Bermudagrass; [4]
  Lawn phytotoxicity Bermuda-grass: −
Bermudagrass; [5]
  Lawn phytotoxicity Bermuda-grass: −
Bermudagrass; [6]
  Lawn phytotoxicity Bermuda-grass: −
Bermudagrass; [7]
  Lawn phytotoxicity Bermuda-grass: −
Bermudagrass; [8]
  Lawn phytotoxicity Bermuda-grass: −
South Japanese lawngrass; [3]
  Lawn phytotoxicity South Japanese lawngrass: −
South Japanese lawngrass; [4]
  Lawn phytotoxicity South Japanese lawngrass: −
South Japanese lawngrass; [5]
  Lawn phytotoxicity South Japanese lawngrass: −
South Japanese lawngrass; [6]
  Lawn phytotoxicity South Japanese lawngrass: −
South Japanese lawngrass; [7]
  Lawn phytotoxicity South Japanese lawngrass: −
South Japanese lawngrass; [8]
  Lawn phytotoxicity South Japanese lawngrass: −
Annual bluegrass [1]; 100 g active ingredient/1000 m^2, flowable of Preparation Example 3 applied on the day of sowing
  Inhibitory effect annual bluegrass: 10 (10:100% inhibition)
Annual bluegrass [1]; 250 g active ingredient/1000 m^2, flowable of Preparation Example 3 applied on the day of sowing
  Inhibitory effect annual bluegrass: 10 (10:100% inhibition)
Annual bluegrass [1]; 500 g active ingredient/1000 m^2, flowable of Preparation Example 3 applied on the day of sowing
  Inhibitory effect annual bluegrass: 10 (10:100% inhibition)
Annual bluegrass [1]; 750 g active ingredient/1000 m^2, flowable of Preparation Example 3 applied on the day of sowing
  Inhibitory effect annual bluegrass: 10 (10:100% inhibition)
Annual bluegrass [1]; 1000 g active ingredient/1000 m^2, flowable of Preparation Example 3 applied on the day of sowing
  Inhibitory effect annual bluegrass: 10 (10:100% inhibition)
Bentgrass; [3]
  Lawn phytotoxicity Bent-grass: −
Bentgrass; [4]
  Lawn phytotoxicity Bent-grass: −
Bentgrass; [5]
  Lawn phytotoxicity Bent-grass: −
Bentgrass; [6]
  Lawn phytotoxicity Bent-grass: −
Bentgrass; [7]
  Lawn phytotoxicity Bent-grass: −
Bentgrass; [8]
  Lawn phytotoxicity Bent-grass: −
Japanese lawngrass; [3]
  Lawn phytotoxicity Japanese lawngrass: −
Japanese lawngrass; [4]
  Lawn phytotoxicity Japanese lawngrass: −
Japanese lawngrass; [5]
  Lawn phytotoxicity Japanese lawngrass: −
Japanese lawngrass; [6]
  Lawn phytotoxicity Japanese lawngrass: −
Japanese lawngrass; [7]
  Lawn phytotoxicity Japanese lawngrass: −
Japanese lawngrass; [8]
  Lawn phytotoxicity Japanese lawngrass: −
Tall fescue; [3]
  Lawn phytotoxicity Tall fescue: −
Tall fescue; [4]
  Lawn phytotoxicity Tall fescue: −
Tall fescue; [5]
  Lawn phytotoxicity Tall fescue: −
Tall fescue; [6]
  Lawn phytotoxicity Tall fescue: −
Tall fescue; [7]
  Lawn phytotoxicity Tall fescue: −
Tall fescue; [8]
  Lawn phytotoxicity Tall fescue: −
Annual bluegrass [2]; [9]
  Inhibitory effect annual bluegrass: 9 (9:90% inhibition)
Annual bluegrass [2]; [3]
  Inhibitory effect annual bluegrass: 10 (10:100% inhibition)
Annual bluegrass [2]; [4]
  Inhibitory effect annual bluegrass: 10 (10:100% inhibition)
Annual bluegrass [2]; [5]
  Inhibitory effect annual bluegrass: 10 (10:100% inhibition)
Annual bluegrass [2]; [6]
  Inhibitory effect annual bluegrass: 10 (10:100% inhibition)
Annual bluegrass [2]; [7]
  Inhibitory effect annual bluegrass: 10 (10:100% inhibition)
foxtail; [9]
  Inhibitory effect foxtail: 9 (9:90% inhibition)
foxtail; [3]
  Inhibitory effect foxtail: 10 (10:100% inhibition)
foxtail; [4]
  Inhibitory effect foxtail: 10 (10:100% inhibition)
foxtail; [5]
  Inhibitory effect foxtail: 10 (10:100% inhibition)
foxtail; [6]
  Inhibitory effect foxtail: 10 (10:100% inhibition)
foxtail; [7]
  Inhibitory effect foxtail: 10 (10:100% inhibition)
Cyperus brevifolius; [9]
  Inhibitory effect Cyperus brevifolius: 1 (1:10% inhibition)
Cyperus brevifolius; [3]
  Inhibitory effect Cyperus brevifolius: 5 (5:50% inhibition)
Cyperus brevifolius; [4]
  Inhibitory effect Cyperus brevifolius: 9 (9:90% inhibition)
Cyperus brevifolius; [5]
  Inhibitory effect Cyperus brevifolius: 10 (10:100% inhibition)
Cyperus brevifolius; [6]
  Inhibitory effect Cyperus brevifolius: 10 (10:100% inhibition)
Cyperus brevifolius; [7]
  Inhibitory effect Cyperus brevifolius: 10 (10:100% inhibition)
